# Measurements reported in patent US20230192617A1, “AZABICYCLIC(THIO)AMIDES AS FUNGICIDAL COMPOUNDS” (Bayer CropScience Aktiengesellschaft, priority 2020, published 2023).
# Key:
# Septoria tritici = assay: B-9. Septoria tritici in vitro cell test; type: cell-based; conditions: Zymoseptoria tritici, 168 h; 20 ppm of active ingredient; 7 days incubation; liquid culture, absorbance; read-out: efficacy (inhibition of fungal growth)
# How it was run: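 Compounds from DMSO stocks (final DMSO ≤1%) were added to liquid medium containing S. tritici spores to test inhibition of germination and mycelial growth. After 7 days, mycelium growth was read spectrometrically and inhibition derived from absorbance versus fungicide-free control wells.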
# Pyrenophora teres [1] = assay: B-10. Pyrenophora teres in vitro cell test; type: cell-based; conditions: 144 h, 20 ppm of active ingredient, 6 days incubation, liquid culture, absorbance, read-out: efficacy (inhibition of fungal growth)
# How it was run: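 Liquid-culture assay on a P. teres spore suspension with compounds added to the medium from DMSO solutions, final DMSO ≤1%. Mycelium growth read spectrometrically after 6 days. Inhibition calculated from absorbance against untreated control wells.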
# Alternaria alternata = Alternaria alternata in vitro cell test; type: cell-based; conditions: 120 h, 20 ppm of active ingredient, liquid culture, 5 days incubation, spectrometric measurement of mycelium growth, read-out: efficacy (inhibition of fungal growth)
# How it was run: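 Spectrometric readout of mycelial growth after 5-day incubation gauged compound effects on spore germination and growth of A. alternata in liquid medium. Compounds were delivered in DMSO at ≤1% final. Absorbance was compared with untreated controls to give inhibition.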
# Botrytis cinerea [2] = assay: In vivo preventive test on Botrytis cinerea (grey mould); conditions: 500 ppm of active ingredient, preventive spray on gherkin or cabbage, evaluated 4 to 5 days after inoculation, read-out: efficacy
# How it was run: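 Preventive spray on cabbage or gherkin seedlings, with compound formulated in DMSO/acetone/Tween 80 and water-diluted, preceded spore inoculation by 24 hours. Cabbage was held 4 to 5 days at 20° C., 100% relative humidity; gherkin 4 to 5 days at 17° C., 90% relative humidity.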
# Botrytis cinerea [3] = assay: B-11. Botrytis cinerea in vitro cell test; type: cell-based; conditions: 144 h, 20 ppm of active ingredient, 6 days incubation, liquid culture, absorbance, read-out: efficacy (inhibition of fungal growth)
# How it was run: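 B. cinerea spores were grown in liquid culture with compound (DMSO ≤1% final). Mycelium growth was measured spectrometrically after 6 days, with inhibition taken as absorbance relative to untreated control wells.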
# Pyrenophora teres [4] = assay: In vivo preventive test on Pyrenophora teres (net blotch on barley); conditions: 240 h, 500 ppm of active ingredient, preventive spray on barley, evaluated 10 days after inoculation, read-out: efficacy
# How it was run: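 Net blotch spores were sprayed onto barley leaves one day after foliar treatment with water-diluted DMSO/acetone/Tween 80 formulations (solvent-only controls). Plants were kept at 20° C: first 48 hours at 100% relative humidity, then 8 days at 70-80%.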
# [5] = test system: Colletotrichum lindemuthianum; assay: In vivo preventive test on Colletotrichum lindemuthianum (leaf spot on bean); conditions: 168 h, 500 ppm of active ingredient, preventive spray on bean, evaluated 7 days after inoculation, read-out: efficacy
# How it was run: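 Young bean plants sprayed with compound in DMSO/acetone/Tween 80 diluted in water; solvent-only controls. Inoculated 24 h later with C. lindemuthianum spore suspension, then kept 24 h at 20 °C/100% RH and 6 days at 20 °C/90% RH.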
# [6] = test system: Colletotrichum lindemuthianum; assay: B-8. Colletotrichum lindemuthianum in vitro cell test; type: cell-based; conditions: 144 h, 20 ppm of active ingredient, 6 days incubation, liquid culture, absorbance, read-out: efficacy (inhibition of fungal growth)
# How it was run: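 Liquid-culture germination/growth test: compounds in ≤1% final DMSO were added to spore-containing medium. Fungal growth was quantified spectrophotometrically after 6 days of incubation and expressed as inhibition versus untreated controls.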
Compound,inhibition at 20 ppm (Septoria tritici),inhibition at 20 ppm (Pyrenophora teres [1]),inhibition at 20 ppm (Alternaria alternata),pest or weed control at 500 ppm (Botrytis cinerea [2]),inhibition at 20 ppm (Botrytis cinerea [3]),pest or weed control at 500 ppm (Pyrenophora teres [4]),pest or weed control at 500 ppm [5],inhibition at 20 ppm [6]
Cc1ccc(C(F)(F)CNC(=O)c2c(Oc3cccc(Br)c3F)nnc3c2CCCC3)c(C)c1 [I-128],90 to 100%,90 to 100%,90 to 100%,90 to 100%,90 to 100%,90 to 100%,90 to 100%,90 to 100%
Cc1ccc([C@@H](F)CNC(=O)c2c(Oc3cccc(C(F)(F)F)c3)nnc3ccccc23)cc1C (racemic) [I-084],90 to 100%,90 to 100%,90 to 100%,90 to 100%,90 to 100%,90 to 100%,90 to 100%,90 to 100%
O=C(NCC(F)c1ccc(Cl)cc1Cl)c1c(Oc2cccc(C(F)(F)F)c2)nnc2c1CCCC2 (centres unmarked) [I-118],90 to 100%,90 to 100%,90 to 100%,90 to 100%,90 to 100%,90 to 100%,90 to 100%,90 to 100%
O=C(NCC(F)(F)c1ccc(Br)cc1Cl)c1c(Oc2cccc(C(F)(F)F)c2)nnc2c1COCC2 [I-229],90 to 100%,90 to 100%,90 to 100%,90 to 100%,90 to 100%,70 to 79%,90 to 100%,90 to 100%
Cc1ccc(C(F)(F)CNC(=O)c2c(Oc3cccc(C(F)(F)F)c3)nnc3c2COCC3)c(Cl)c1 [I-124],90 to 100%,90 to 100%,90 to 100%,90 to 100%,90 to 100%,80 to 89%,90 to 100%,90 to 100%
Cc1ccc(CCNC(=O)c2c(Oc3cccc(C4CC4)c3F)nnc3ccccc23)c(C)c1 [I-070],90 to 100%,90 to 100%,90 to 100%,90 to 100%,90 to 100%,90 to 100%,90 to 100%,90 to 100%
Cc1ccc(C(F)(F)CNC(=O)c2c(Oc3cccc(C(F)F)c3)cnc3ccccc23)c(C)c1 [I-220],90 to 100%,90 to 100%,90 to 100%,90 to 100%,90 to 100%,70 to 79%,80 to 89%,90 to 100%
Cc1ccc(C(F)(F)CNC(=O)c2c(Oc3cccc(Br)c3)nnc3ccccc23)c(C)c1 [I-216],80 to 89%,90 to 100%,90 to 100%,90 to 100%,90 to 100%,70 to 79%,90 to 100%,90 to 100%
O=C(NCC(F)(F)c1ccc(Br)cc1Cl)c1c(Oc2cccc(C(F)(F)F)c2)nnc2c1CCC2 [I-212],90 to 100%,90 to 100%,90 to 100%,90 to 100%,90 to 100%,90 to 100%,90 to 100%,90 to 100%
"O=C(NCC(F)c1ccc(Cl)cc1Cl)c1c(Oc2cccc(C3CC3)c2)nnc2c1CCCC2 (centres unmarked) [I-119, 3-(3-cyclopropylphenoxy)-N-[2-(2,4-dichlorophenyl)-2-fluoro-ethyl]-5,6,7,8-tetrahydrocinnoline-4-carboxamide]",90 to 100%,90 to 100%,90 to 100%,90 to 100%,90 to 100%,90 to 100%,90 to 100%,90 to 100%
Cc1ccc(C(F)(F)CNC(=O)c2c(Oc3cccc(C(F)(F)F)c3)nnc3c2CCCC3)c(Cl)c1 [I-239],90 to 100%,90 to 100%,90 to 100%,90 to 100%,90 to 100%,90 to 100%,90 to 100%,90 to 100%
Cc1ccc(C(F)(F)CNC(=O)c2c(Oc3cccc(Cl)c3)nnc3c2CCCC3)c(Cl)c1 [I-139],90 to 100%,90 to 100%,90 to 100%,90 to 100%,90 to 100%,80 to 89%,90 to 100%,90 to 100%
Cc1ccc(C(F)(F)CNC(=O)c2c(Oc3cccc(Cl)c3F)nnc3c2CCC3)c(C)c1 [I-133],90 to 100%,90 to 100%,90 to 100%,90 to 100%,90 to 100%,90 to 100%,90 to 100%,90 to 100%
Cc1cc(Br)ccc1C(F)(F)CNC(=O)c1c(Oc2cccc(Cl)c2)nnc2c1CCCC2 [I-151],90 to 100%,90 to 100%,90 to 100%,90 to 100%,90 to 100%,80 to 89%,90 to 100%,90 to 100%
Cc1cc(Br)ccc1C(F)(F)CNC(=O)c1c(Oc2cccc(C(F)(F)F)c2)nnc2c1COCC2 [I-127],90 to 100%,90 to 100%,90 to 100%,90 to 100%,90 to 100%,70 to 79%,90 to 100%,90 to 100%
O=C(NCC(F)c1ccc(Cl)cc1Cl)c1c(Oc2cccc(Cl)c2F)nnc2c1CCCC2 (centres unmarked) [I-149],90 to 100%,90 to 100%,90 to 100%,90 to 100%,90 to 100%,90 to 100%,90 to 100%,90 to 100%
Cc1cc(Cl)ccc1C(F)(F)CNC(=O)c1c(Oc2cccc(Cl)c2)nnc2c1CCCC2 [I-146],90 to 100%,90 to 100%,90 to 100%,90 to 100%,90 to 100%,80 to 89%,90 to 100%,70 to 79%
O=C(NCC(F)c1ccc(Cl)cc1Cl)c1c(Oc2cccc(Cl)c2F)nnc2c1CCC2 (centres unmarked) [I-188],90 to 100%,90 to 100%,90 to 100%,90 to 100%,90 to 100%,90 to 100%,90 to 100%,90 to 100%
Cc1cccc(Oc2cnc3ccccc3c2C(=O)NCC(F)(F)c2ccc(C)cc2C)c1 [I-222],80 to 89%,90 to 100%,90 to 100%,90 to 100%,90 to 100%,80 to 89%,70 to 79%,90 to 100%
Cc1cc(Cl)ccc1C(F)(F)CNC(=O)c1c(Oc2cccc(C(F)(F)F)c2)nnc2c1CCCC2 [I-145],90 to 100%,90 to 100%,90 to 100%,90 to 100%,90 to 100%,90 to 100%,90 to 100%,90 to 100%
O=C(NCC(F)(F)c1ccc(Br)cc1Cl)c1c(Oc2cccc(Cl)c2F)nnc2c1CCC2 [I-213],90 to 100%,90 to 100%,90 to 100%,90 to 100%,90 to 100%,80 to 89%,90 to 100%,90 to 100%
Cc1ccc(C(F)(F)CNC(=O)c2c(Oc3cccc(Cl)c3F)nnc3c2CCCC3)c(C)c1 [I-130],90 to 100%,90 to 100%,90 to 100%,90 to 100%,90 to 100%,90 to 100%,90 to 100%,90 to 100%
